Data set [1] relates to wild-type AG83 L. donovani amastigotes in spleen. In words: Leishman-Donovan Unit (LDU) assay in infected mice. The data set is classed as in vivo, BALB/c mice. As to the method: Spleen smears were stained with Giemsa to confirm infection. The infected animals were divided into three groups consisting 4-5 animals per group. The groups were classified as the infected control group, BPQ treated group and BPQ+NP treated group. […] The infected control group was injected an equal volume of PBS during the entire dosing period. […] After that spleen impression smears were prepared on glass slides and stained with Giemsa to analyze infected visceral organ (spleen) microscopically. The parasite burdens were determined by evaluating the LDU values, which were calculated by multiplying the number of amastigotes counted per 500 nuclei with the spleen weight in mg.

The subject of data set [2] is intracellular L.donovani amastigotes, GE1, in macrophages. Description: Antileishmanial activity against intracellular amastigotes, GE1. The data set is classed as cell-based. As to the method: (§1) The intracellular antileishmanial activity was evaluated based on the reduction in the amastigote numbers in the infected macrophages after the treatment. The method was adapted from our previous work. Briefly, 4x10^6 amastigotes in 500 μL of RPMI-1640 suspension were added to each well containing macrophages with the macrophage: parasite ratio of 1:10. The plates were incubated for 4 h at 37°C in 5% CO2. After the parasite internalization period, cells were washed at least twice with fresh media to remove non-phagocytosed parasites. Then, the drug specimen suspended in 1 mL RPMI-1640 was added, and the samples were incubated for 72 h at 37°C in 5% CO2. The medium was aspirated, the coverslips were removed, and then fixed with methanol and air-dried. After staining with Giemsa, 100 cells on the glass discs were counted. Three independent experiments in quadruplicate for each concentration were performed.
(§2) Microscopic examinations were performed in duplicates with various concentrations of pure drugs or buparvaquone-loaded nanoparticles and also for control wells. The amastigotes cells were counted for all cases using a hemocytometer. The mean of the control wells was considered as 100% survival. The counts in the treated wells at various concentrations were converted into percentages. Giemsa-stained slides of the macrophages infected with amastigotes were observed under a light microscope. Then the numbers of amastigotes and infected macrophages per 100 cells were counted for each slide. The percentage (%) of inhibition was calculated by using the equation %ofinhibition=C−T/C×100, (2) where C is the number of amastigotes/infected macrophages per 100 cells in the control well and T is the number of amastigotes/infected macrophages per 100 cells in the drug-treated well.
(§3) Origin version 6.1 software was used to calculate IC50 and CC50 values by plotting a graph of the percentage of inhibition at various concentrations of all the observations.

Data set [3] has as its system axenic L.donovani amastigotes, AG83-R, PMM (PMM resistant strain generated from AG83). In words: microbe, parasite or virus in culture. The data set is classed as cell-based. As to the method:
(§4) L. donovani AG83 (MHOM/IN/83/AG83) and GE1 (MHOM/IN/80/GE1F8R) promastigotes were routinely grown in medium 199 supplemented with 10% heat-inactivated fetal bovine serum, 2 mM L-glutamine, 20 mM HEPES, 100 U/mL penicillin, and 100 μg/mL streptomycin at 25°C. L. donovani amastigote forms were grown and maintained as described previously. Axenic amastigote forms were derived from promastigote forms by culturing them in MMA/20 (medium for axenic amastigote) at pH 5.5 [22]. Axenically grown amastigotes were maintained by sub-culture of 10^5 parasites/ml repeated every fifth day under experimental conditions of 37°C temperature and 5% CO2 environment.
(§5) SSG and PMM resistant L. donovani amastigotes were generated by using the methods described previously. […] The cultures were stabilized for three subcultures. Then, the drug concentration was increased until the cell population decreased approximately to 20% for each batch. Finally, when 90% cell population of the initial count was reduced, the phenotype generated was plated on medium 199 agar plates containing the same drug concentration, and a single colony was picked for culture in medium 199 liquid media at the same drug concentration. The cultured promastigotes are converted into amastigotes as described above. Drug pressure was withdrawn, and stability was checked at one, two, and four months. SSG and PMM resistant phenotype clones were labeled as AG83-R,SSG and AG83-R, PMM, respectively.
(§6) The antileishmanial activity of the drug specimens (BPQ+NP, BPQ, SSG, AmB, PMM, and MF) against the axenic amastigotes were evaluated based on the IC50 value, which is the concentration of the specimen required to kill 50% of the parasites. The parasites were first seeded into 96-well plates at a density of 1x10^5 amastigotes/well in 200 μL medium. Then, 10 μL of the drug candidates at various concentrations were added and the final volume was adjusted to […] medium. The number of amastigotes in the wells treated with each specimen were compared to those in the untreated control wells.
as §2, §3

Data set [4] concerns axenic L.donovani amastigotes, AG83-R, SSG (SSG resistant strain generated from AG83). Description: microbe, parasite or virus in culture. The data set is classed as cell-based. How it is done: as §4, §5, §6, §2, §3
Data set [5] has as its system axenic L.donovani amastigotes, wild-type AG83. In words: Antileishmanial activity against axenic amastigotes, wild-type AG83. The data set is classed as cell-based. As to the method:
as §4, §6, §2, §3

In data set [6] the test system is intracellular L.donovani amastigotes, AG83-R, PMM, in macrophages. In words: microbe, parasite or virus in culture. The data set is classed as cell-based. As to the method:
as §5, §1, §2, §3

Data set [7] relates to intracellular L.donovani amastigotes, AG83-R, SSG, in macrophages. In words: microbe, parasite or virus in culture. The data set is classed as cell-based. As to the method: as §5, §1, §2, §3
In data set [8] the test system is peritoneal macrophages. Details: method as in earlier work. Conditions: ref 32 (Reimao et al.); cited from earlier work.
Setting [9] is: IC50 against drug resistant strain / IC50 against wild-type strain (AG83), axenic.

As for `CC(C)(C)[C@H]1CC[C@H](CC2=C(O)C(=O)c3ccccc3C2=O)CC1` [BPQ, Buparvaquone], in data set [1] (1 mg/kg i.p. for 5 consecutive days), the “Fold reduction of amastigote burden in spleen compared with the control group” value is given as 20 fold. Moreover, in data set [1] (infected BALB/c mice, 1 mg/kg i.p. for 5 consecutive days, day 7 post-treatment, n = 5), the Spleen wt. amounted to 100 ± 10 mg. The “Suppression / inhibition of parasite burden in vivo (summary statement)” value in data set [1] (spleen of infected mice, intraperitoneal, corresponding doses) stood at 50%. In data set [1] (spleen, 1 mg/kg i.p. for 5 consecutive days), the “LDU (Leishman Donovan Unit = number of amastigotes per 500 nuclei × spleen weight in mg)” value is 2 ± 1 × 10^4. For the same molecule, the “Amastigotes per 500 nuclei” value in data set [1] (spleen, 1 mg/kg i.p. for 5 consecutive days, day 7 post-treatment) was found to be 200 ± 20. Besides, the “Selectivity index (SI), GE1” value in data set [2] (CC50/IC50, intracellular) worked out at 90 ± 10. Moreover, the “Fold larger cellular IC50 of pure BPQ than BPQ+NP” value in data set [2] (GE1) came out at 4 fold; in data set [6] (AG83-R, PMM) it was 5 fold; in data set [7] (AG83-R, SSG), 5 fold. Also, the IC50 in data set [2] (Leishmania donovani, Macrophage, intracellular amastigotes, 72 h, mean ± σ, n = 4, read-out: Cellular IC50, GE1) came out at 3.8 ± 0.4 µM; in data set [3] (Leishmania donovani, read-out: Axenic IC50, AG83-R, PMM), 7.1 ± 0.8 µM; in data set [4] (Leishmania donovani, read-out: Axenic IC50, AG83-R, SSG) it was 8.1 ± 0.8 µM; in data set [5] (Leishmania donovani, axenic amastigotes, mean ± σ, n = 4) it was 3.4 ± 0.3 µM; in data set [6] (Leishmania donovani, Macrophage, 72 h, read-out: Cellular IC50, AG83-R, PMM), 4.8 ± 0.5 µM; in data set [7] (Leishmania donovani, Macrophage, 72 h, read-out: Cellular IC50, AG83-R, SSG), 5.4 ± 0.4 µM. Further, the “Fold higher axenic IC50 of pure BPQ than BPQ+NP” value is on record as 7 fold in data set [3] (AG83-R, PMM); 8 fold in data set [4] (AG83-R, SSG); 3 fold in data set [5] (wild-type AG83). The “Resistance index (RI), AG83-R, PMM” value in data set [3] (setting [9]) is listed as 2.1 ± 1.5. Also, in data set [4] (setting [9]), the “Resistance index (RI), AG83-R, SSG” value is given as 2.4 ± 1.2. Moreover, the “Selectivity index (SI), AG83-R, PMM” value in data set [6] (CC50/IC50, intracellular) came out at 60 ± 10. For the same molecule, the “Selectivity index (SI), AG83-R, SSG” value in data set [7] (CC50/IC50, intracellular) is reported as 60 ± 10. The CC50 in data set [8] was more than 230 µM.

The record behind these values is article PMC8274846, “Biogenic nanoporous silicon carrier improves the efficacy of buparvaquone against resistant visceral leishmaniasis” (PLoS Neglected Tropical Diseases, 2021).
